Data on 13 compounds can be found in paper PMC6028563, “Probing Substituents in the 1- and 3-Position: Tetrahydropyrazino-Annelated Water-Soluble Xanthine Derivatives as Multi-Target Drugs With Potent Adenosine Receptor Antagonistic Activity” (Frontiers in Chemistry, 2018).

The target in experiment [1] is T1, human A1 AR (Homo sapiens, UniProt P30542).
T1 construct: expressed in transfected cells; host or cells: CHO cells
T1 sequence (P30542 1-326): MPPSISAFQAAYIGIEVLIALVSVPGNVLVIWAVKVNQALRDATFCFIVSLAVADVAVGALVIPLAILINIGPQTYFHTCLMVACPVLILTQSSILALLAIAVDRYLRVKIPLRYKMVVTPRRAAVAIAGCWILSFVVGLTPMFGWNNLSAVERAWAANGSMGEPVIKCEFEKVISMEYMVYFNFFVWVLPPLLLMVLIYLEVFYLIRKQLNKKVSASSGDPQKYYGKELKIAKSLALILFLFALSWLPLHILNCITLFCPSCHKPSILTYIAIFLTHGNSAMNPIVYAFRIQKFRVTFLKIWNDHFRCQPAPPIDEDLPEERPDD
The experiment is described as follows: Radioligand binding assay at human A1 AR vs. [^3H]CCPA. To be noted: human (h); CHO cell membranes; n = 3. The procedure, abridged:
(§1)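 Rat A1 affinity was measured on cortical membranes and rat A2A on striatal membranes from rat brain. Human A1, A2A, A2B and A3 subtypes were tested on membranes of CHO cells recombinantly expressing each receptor. No functional assays were run, as these xanthine-type compounds act only as blockers.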

Experiment [2] concerns the target T2, rat A1 AR (Rattus norvegicus, UniProt P25099).
T2 construct: A1 ARs of rat brain cortical membrane; from tissue; host or cells: rat brain cortex membranes
T2 sequence (P25099 1-326): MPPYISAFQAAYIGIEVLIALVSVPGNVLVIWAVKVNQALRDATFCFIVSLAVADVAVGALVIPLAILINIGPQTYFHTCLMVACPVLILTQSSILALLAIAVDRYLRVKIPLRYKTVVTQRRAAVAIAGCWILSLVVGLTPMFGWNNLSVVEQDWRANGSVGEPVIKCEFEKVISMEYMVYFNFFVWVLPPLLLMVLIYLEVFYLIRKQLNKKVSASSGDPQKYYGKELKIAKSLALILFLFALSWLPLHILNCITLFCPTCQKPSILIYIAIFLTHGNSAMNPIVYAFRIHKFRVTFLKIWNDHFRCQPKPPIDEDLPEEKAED
The experiment is described as follows: Radioligand binding assay at rat A1 AR (rat brain cortex) vs. [^3H]CCPA. Conditions: rat (r); for Ki: rat brain cortex, n = 3. The procedure, abridged: as §1

The target in experiment [3] is T3, rat A2A AR (Rattus norvegicus, UniProt P30543).
T3 construct: A2A ARs of rat brain striatal membrane preparations; from tissue; host or cells: rat brain striatum membranes
T3 sequence (P30543 whole entry): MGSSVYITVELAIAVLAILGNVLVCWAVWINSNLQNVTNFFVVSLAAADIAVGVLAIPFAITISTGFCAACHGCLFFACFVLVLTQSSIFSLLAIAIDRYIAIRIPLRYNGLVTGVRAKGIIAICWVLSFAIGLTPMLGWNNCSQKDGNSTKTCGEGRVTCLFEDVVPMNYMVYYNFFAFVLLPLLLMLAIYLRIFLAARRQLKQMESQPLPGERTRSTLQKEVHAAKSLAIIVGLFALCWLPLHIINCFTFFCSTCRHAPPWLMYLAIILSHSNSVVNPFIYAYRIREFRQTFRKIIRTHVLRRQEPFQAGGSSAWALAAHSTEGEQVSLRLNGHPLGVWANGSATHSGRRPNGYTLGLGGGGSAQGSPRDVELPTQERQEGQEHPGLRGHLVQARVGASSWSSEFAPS
In words: Radioligand binding assay at rat A2A AR (rat brain striatum) vs. [^3H]MSX-2. To be noted: rat (r); for Ki: rat brain striatum, n = 3, read-out: Ki ± SEM, A2A vs. [^3H]MSX-2; for % inhibition of radioligand binding at indicated concentration, A2A vs. [^3H]MSX-2: at 1,000 nM. The method, boiled down: as §1

Experiment [4] addresses T4, human A2B AR (Homo sapiens, UniProt P29275).
T4 construct: expressed in transfected cells; host or cells: CHO cells
T4 sequence (P29275 1-332): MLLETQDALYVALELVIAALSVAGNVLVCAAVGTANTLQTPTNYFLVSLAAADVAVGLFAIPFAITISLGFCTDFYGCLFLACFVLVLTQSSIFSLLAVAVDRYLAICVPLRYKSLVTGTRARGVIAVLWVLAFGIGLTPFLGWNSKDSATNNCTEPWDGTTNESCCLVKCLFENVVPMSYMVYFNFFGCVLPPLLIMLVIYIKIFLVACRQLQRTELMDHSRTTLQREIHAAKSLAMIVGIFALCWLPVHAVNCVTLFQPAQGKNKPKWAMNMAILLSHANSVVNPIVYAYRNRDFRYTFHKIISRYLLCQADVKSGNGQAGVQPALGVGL
In words: Radioligand binding assay at human A2B AR vs. [^3H]PSB-603. To be noted: for Ki: CHO cell membranes, n = 2 (n = 3 where marked a), read-out: Ki ± SEM, A2B vs. [^3H]PSB-603; for inhibition at 1 µM: at 1,000 nM. The method, boiled down:
as §1

The target in experiment [5] is T5, human A3 AR (Homo sapiens, UniProt P0DMS8).
T5 construct: expressed in transfected cells; host or cells: CHO cells
T5 sequence (P0DMS8 1-318): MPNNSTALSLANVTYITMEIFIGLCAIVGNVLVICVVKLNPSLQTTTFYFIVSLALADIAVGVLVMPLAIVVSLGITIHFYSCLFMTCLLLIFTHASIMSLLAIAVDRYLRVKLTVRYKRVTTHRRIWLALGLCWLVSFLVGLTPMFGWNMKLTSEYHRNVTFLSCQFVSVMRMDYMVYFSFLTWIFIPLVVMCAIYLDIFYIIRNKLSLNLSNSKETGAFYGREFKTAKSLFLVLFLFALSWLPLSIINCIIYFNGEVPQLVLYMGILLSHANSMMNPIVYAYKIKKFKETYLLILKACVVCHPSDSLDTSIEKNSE
The experiment is described as follows: Radioligand binding assay at human A3 AR vs. [^3H]PSB-11. To be noted: for Ki: CHO cell membranes, n = 2 (n = 3 where marked a), read-out: Ki ± SEM, A3 vs. [^3H]PSB-11; for inhibition at 10 µM: at 10,000 nM, read-out: % inhibition of radioligand binding at indicated concentration, A3 vs. [^3H]PSB-11. The method, boiled down:
as §1

Setting [6] is: read-out: % inhibition of radioligand binding at indicated concentration, A2B vs. [^3H]PSB-603.

With `CCn1c(=O)c2c(nc3n2CCN(Cc2cccc(Br)c2)C3)n(C)c1=O` [Compound 14b, 8-(3-bromobenzyl)-3-ethyl-1-methyl-6,7,8,9-tetrahydropyrazino[2,1-f]purine-2,4(1H,3H)-dione], the Ki in experiment [1] is 70.7 ± 12.3 nM; in experiment [2], 28.8 ± 1.5 nM; in experiment [3] it was 1140 nM; in experiment [4] it was over 1000 nM; in experiment [5], over 10000 nM. Further, the inhibition at 1 µM in experiment [4] (setting [6]) amounted to 9%. Also, the inhibition at 10 µM in experiment [5] turned out to be 39%.

On to `C#CCn1c(=O)c2c(nc3n2CCN(Cc2ccc(Cl)c(Cl)c2)C3)n(C)c1=O` [Compound 19a, 8-(3,4-dichlorobenzyl)-1-methyl-3-propargyl-6,7,8,9-tetrahydropyrazino[2,1-f]purine-2,4(1H,3H)-dione], for which the Ki is 967 ± 211 nM in experiment [1]; 292 ± 21 nM in experiment [2]; 642 ± 194 nM in experiment [3]; over 1000 nM in experiment [4]; 5630 nM in experiment [5]. For the same compound, the inhibition at 1 µM in experiment [4] (setting [6]) came out at 23%.

Take `CCn1c(=O)c2c(nc3n2CCN(Cc2cc(Br)ccc2F)C3)n(C)c1=O` [Compound 14o, 8-(5-bromo-2-fluorobenzyl)-3-ethyl-1-methyl-6,7,8,9-tetrahydropyrazino[2,1-f]purine-2,4(1H,3H)-dione]: the Ki in experiment [1] is 116 ± 27 nM; in experiment [2], 36 ± 18.4 nM; in experiment [3] it was 880 ± 174 nM; in experiment [4], over 1000 nM; in experiment [5] it was over 10000 nM. Moreover, in experiment [4] (setting [6]), the inhibition at 1 µM was 11%. Further, the inhibition at 10 µM in experiment [5] was determined as 39%.

For `CCn1c(=O)c2c(nc3n2CCN(Cc2cc(Cl)cc(Cl)c2)C3)n(CC)c1=O` [Compound 15m, 8-(3,5-dichlorobenzyl)-1,3-diethyl-6,7,8,9-tetrahydropyrazino[2,1-f]purine-2,4(1H,3H)-dione], the Ki in experiment [1] was 207 ± 48 nM; in experiment [2], 89.6 ± 21.4 nM; in experiment [3] it was 2200 nM; in experiment [4] it was over 1000 nM; in experiment [5] it was 4720 nM. In experiment [4] (setting [6]), the inhibition at 1 µM amounted to 23%.

On to `CCn1c(=O)c2c(nc3n2CCN(Cc2cc(C(F)(F)F)ccc2Cl)C3)n(CC)c1=O` [Compound 15n, 8-(2-chloro-5-(trifluoromethyl)benzyl)-1,3-diethyl-6,7,8,9-tetrahydropyrazino[2,1-f]purine-2,4(1H,3H)-dione], for which the Ki in experiment [1] is 22.6 ± 2.7 nM; in experiment [2], 19.6 ± 3 nM; in experiment [3], 871 ± 50 nM; in experiment [4], over 1000 nM; in experiment [5] it was over 10000 nM. The inhibition at 1 µM in experiment [4] (setting [6]) is 23%. For the same compound, the inhibition at 10 µM in experiment [5] is 38%.

With `CCn1c(=O)n(C)c(=O)c2c1nc1n2CCN(Cc2cc(Cl)cc(Cl)c2)C1` [Compound 16b, 8-(3,5-dichlorobenzyl)-1-ethyl-3-methyl-6,7,8,9-tetrahydropyrazino[2,1-f]purine-2,4(1H,3H)-dione], the inhibitory constant (Ki) in experiment [1] is 143 ± 16 nM; in experiment [2], 49.3 ± 8 nM; in experiment [3] it was 1490 nM; in experiment [4], over 1000 nM; in experiment [5], over 10000 nM. In experiment [4] (setting [6]), the inhibition at 1 µM was found to be 5%. In experiment [5], the inhibition at 10 µM is 23%.

In the case of `CCn1c(=O)c2c(nc3n2CCN(Cc2cc(C(F)(F)F)ccc2F)C3)n(CC)c1=O` [Compound 15j, 1,3-diethyl-8-(2-fluoro-5-(trifluoromethyl)benzyl)-6,7,8,9-tetrahydropyrazino[2,1-f]purine-2,4(1H,3H)-dione], the Ki in experiment [1] is 39.4 ± 7.4 nM; in experiment [2] it was 124 ± 21 nM; in experiment [3], 600 ± 54 nM; in experiment [4], over 1000 nM; in experiment [5], over 10000 nM. Besides, in experiment [4] (setting [6]), the inhibition at 1 µM turned out to be 27%. Further, in experiment [5], the inhibition at 10 µM was 25%.

As for `CCn1c(=O)c2c(nc3n2CCN(Cc2cccc(C(F)(F)F)c2)C3)n(CC)c1=O` [Compound 15g, 1,3-diethyl-8-(3-(trifluoromethyl)benzyl)-6,7,8,9-tetrahydropyrazino[2,1-f]purine-2,4(1H,3H)-dione], the inhibition constant (Ki) in experiment [1] is 84.8 ± 2.4 nM; in experiment [2], 30 ± 5.7 nM; in experiment [3] it was 1030 nM; in experiment [4], over 1000 nM; in experiment [5] it was over 10000 nM. Besides, the inhibition at 1 µM in experiment [4] (setting [6]) was found to be 27%. In experiment [5], the inhibition at 10 µM was 36%.

As to `CCn1c(=O)c2c(nc3n2CCN(Cc2cc(F)c(F)c(F)c2)C3)n(CC)c1=O` [Compound 15r, 1,3-diethyl-8-(3,4,5-trifluorobenzyl)-6,7,8,9-tetrahydropyrazino[2,1-f]purine-2,4(1H,3H)-dione], the inhibitory constant (Ki) in experiment [1] is 1190 nM; in experiment [2], over 1500 nM; in experiment [3], over 1000 nM; in experiment [4], over 1000 nM; in experiment [5], over 10000 nM. Moreover, the inhibition at 1.5 µM in experiment [2] (read-out: % inhibition of radioligand binding at indicated concentration, A1 vs. [^3H]CCPA, at 1,500 nM) was 25%. For the same compound, the “% inhibition of radioligand binding at indicated concentration, A2A vs. [^3H]MSX-2” value in experiment [3] stood at 36%. The inhibition at 1 µM in experiment [4] (setting [6]) came out at 23%. Moreover, the inhibition at 10 µM in experiment [5] stood at 14%.

On to `CCn1c(=O)c2c(nc3n2CCN(Cc2cccc(C(F)(F)F)c2)C3)n(C)c1=O` [Compound 14e, 3-ethyl-1-methyl-8-(3-(trifluoromethyl)benzyl)-6,7,8,9-tetrahydropyrazino[2,1-f]purine-2,4(1H,3H)-dione], for which the inhibitory constant (Ki) was 156 ± 49 nM in experiment [1]; 49.1 ± 6.2 nM in experiment [2]; 708 ± 25 nM in experiment [3]; over 100 nM in experiment [4]; over 10000 nM in experiment [5]. Moreover, in experiment [4] (at 100 nM, read-out: % inhibition of radioligand binding at indicated concentration, A2B vs. [^3H]PSB-603), the inhibition at 0.1 µM was 2%. Besides, in experiment [5], the inhibition at 10 µM is 38%.

As to `CCn1c(=O)c2c(nc3n2CCN(Cc2ccc(Br)cc2)C3)n(C)c1=O` [Compound 14c, 8-(4-bromobenzyl)-3-ethyl-1-methyl-6,7,8,9-tetrahydropyrazino[2,1-f]purine-2,4(1H,3H)-dione], the Ki in experiment [1] was 1350 nM; in experiment [2] it was 156 ± 21 nM; in experiment [3], over 1000 nM; in experiment [4] it was over 1000 nM; in experiment [5] it was 9390 nM. For the same compound, in experiment [3], the “% inhibition of radioligand binding at indicated concentration, A2A vs. [^3H]MSX-2” value is 35%. Also, the inhibition at 1 µM in experiment [4] (setting [6]) worked out at 1%.

Consider `CCn1c(=O)c2c(nc3n2CCN(Cc2cccc(C(F)(F)F)c2F)C3)n(C)c1=O` [Compound 14l, 3-ethyl-8-(2-fluoro-3-(trifluoromethyl)benzyl)-1-methyl-6,7,8,9-tetrahydropyrazino[2,1-f]purine-2,4(1H,3H)-dione], for which the Ki in experiment [1] is 495 ± 80 nM; in experiment [2] it was 236 ± 57 nM; in experiment [3], 667 ± 68 nM; in experiment [4], over 1000 nM; in experiment [5] it was over 10000 nM. In experiment [4] (setting [6]), the inhibition at 1 µM is 8%. Moreover, the inhibition at 10 µM in experiment [5] came out at 29%.

As for `CCn1c(=O)c2c(nc3n2CCN(Cc2cc(Br)ccc2F)C3)n(CC)c1=O` [Compound 15l, 8-(5-bromo-2-fluorobenzyl)-1,3-diethyl-6,7,8,9-tetrahydropyrazino[2,1-f]purine-2,4(1H,3H)-dione], the Ki in experiment [1] is 75.4 ± 16.1 nM; in experiment [2], 33.5 ± 5.6 nM; in experiment [3], 756 ± 46 nM; in experiment [4] it was over 1000 nM; in experiment [5], 13300 nM. The inhibition at 1 µM in experiment [4] (setting [6]) worked out at 24%.

Usually Ki stands for the dissociation constant of the complex between target and ligand, obtained from inhibition or displacement.
